According to the supplement of paper PMC10307832:

What was measured:
Assay in all cases: relative viability (nuclei count vs DMSO), 5 days (fraction); higher = more cells survive
[1] = compound: C1CC1C(=O)NC2=NNC3=C2C=CC(=C3)C4=CC(=CC=C4)C(=O)NC5CC5 [XMD13-2]
Procedure, shortened: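 Lung cancer cell lines in 1536-well plates were kept overnight at 37 °C, then pinned with five library-drug doses (not always all listed) spaced by √10 on vehicle-anchored plates. After 5 days without medium change, cells were fixed, permeabilised and Hoechst-stained in one step, imaged at 4×, and nuclei were counted with MetaXpress. Viability is treated-well nuclei divided by vehicle-well nuclei, taken as the median over plates. Plates passed only with control CV below 25% and at least one doubling.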

[2] = compound: Cc1nc(Nc2ncc(C(=O)Nc3c(C)cccc3Cl)s2)cc(N2CCN(CCO)CC2)n1 [Dasatinib] + C[C@]1(O)C[C@@H](c2nc(-c3ccc4ccc(-c5ccccc5)nc4c3)c3c(N)nccn32)C1 [Linsitinib] (partner 1 µM)
Procedure, shortened: (§1)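 Lung cancer cell lines were seeded in 1536-well plates and dosed by pin tool the next day, with either a single drug or a fixed anchor-drug dose combined with five library-drug doses (not always all listed) spaced in √10 steps. Five days later, one step fixed the cells and stained their nuclei (final 0.05% Triton X-100, 1% formaldehyde, 1 ug/ml Hoechst), and nuclei were counted on 4× images. Relative viability is the nuclei count in treated wells divided by the count in vehicle wells, and each value is the median of duplicate plates.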

[3] = compound: Cc1nc(Nc2ncc(C(=O)Nc3c(C)cccc3Cl)s2)cc(N2CCN(CCO)CC2)n1 [Dasatinib] + CS(=O)(=O)CCNCc1ccc(-c2ccc3ncnc(Nc4ccc(OCc5cccc(F)c5)c(Cl)c4)c3c2)o1 [Lapatinib] (partner 2 µM)
Procedure, shortened: as §1

[4] = compound: C1CC1C(=O)NC2=NNC3=C2C=CC(=C3)C4=CC(=CC=C4)C(=O)NC5CC5 [XMD13-2] + O=C(c1cc(Cc2n[nH]c(=O)c3ccccc23)ccc1F)N1CCN(C(=O)C2CC2)CC1 [Olaparib] (partner 8 µM)
Procedure, shortened: as §1

Row | Cell Line | relative viability ([1]; 0.05 µM) | relative viability ([1]; 0.1581 µM) | relative viability ([1]; 0.5 µM) | relative viability ([1]; 1.581 µM) | relative viability ([1]; 5 µM) | relative viability ([2]; first compound 0.005 µM) | relative viability ([2]; first compound 0.01581 µM) | relative viability ([2]; first compound 0.05 µM) | relative viability ([2]; first compound 0.1581 µM) | relative viability ([2]; first compound 0.5 µM) | relative viability ([3]; first compound 0.005 µM) | relative viability ([3]; first compound 0.01581 µM) | relative viability ([3]; first compound 0.05 µM) | relative viability ([3]; first compound 0.1581 µM) | relative viability ([3]; first compound 0.5 µM) | relative viability ([4]; first compound 0.05 µM) | relative viability ([4]; first compound 0.1581 µM) | relative viability ([4]; first compound 0.5 µM) | relative viability ([4]; first compound 1.581 µM) | relative viability ([4]; first compound 5 µM)
1 | HCC-15 | 1.11 | 0.931 | 1.01 | 0.98 | 0.904 | 0.862 | 0.773 | 0.766 | 0.599 | 0.555 | 0.887 | 0.942 | 0.846 | 0.764 | 0.658 | 0.706 | 0.66 | 0.785 | 0.669 | 0.661
2 | HCC-44 | 0.988 | 0.996 | 1.05 | 0.978 | 1.03 | 0.619 | 0.51 | 0.669 | 0.27 | 0.131 | 1.03 | 0.942 | 1.07 | 0.844 | 0.555 | 1.01 | 0.983 | 0.974 | 1.03 | 0.986
3 | HCC-78 | 1.06 | 0.934 | 0.981 | 0.908 | 0.962 | 0.376 | 0.447 | 0.408 | 0.363 | 0.24 | 0.359 | 0.694 | 0.696 | 0.478 | 0.19 | 0.895 | 0.781 | 0.812 | 0.667 | 0.733
4 | HCC-366 | 1.08 | 0.918 | 0.991 | 0.979 | 1.03 | 0.122 | 0.0525 | 0.067 | 0.0321 | 0.04 | 0.99 | 0.713 | 0.695 | 0.446 | 0.337 | 0.448 | 0.328 | 0.444 | 0.355 | 0.358
5 | HCC-827 | 1.06 | 1.01 | 1.02 | 0.973 | 0.944 | 1.03 | 1.05 | 0.971 | 0.581 | 0.102 | 0.173 | 0.18 | 0.139 | 0.16 | 0.131 | 0.722 | 0.661 | 0.575 | 0.609 | 0.421
6 | HOP-62 | 1.04 | 0.955 | 1.1 | 0.953 | 1.02 | 1.07 | 1.07 | 0.85 | 0.682 | 0.297 | 1.02 | 0.971 | 0.789 | 0.983 | 0.337 | 0.307 | 0.697 | 0.391 |  | 0.489
7 | IA-LM | 0.967 | 0.982 | 0.977 | 0.87 | 0.883 | 0.787 | 0.732 | 0.65 | 0.712 | 0.475 | 0.996 | 0.828 | 1.08 | 0.55 | 0.436 | 0.832 | 0.903 | 0.787 | 0.707 | 0.635
8 | LC-2-ad | 1.03 | 1.04 | 1.03 | 0.94 | 0.994 | 0.685 | 0.702 | 0.6 | 0.26 | 0.176 | 0.648 | 0.876 | 0.952 | 0.699 | 0.186 | 0.684 | 0.716 | 0.681 | 0.701 | 0.718
9 | LCLC-97TM1 | 0.974 | 0.917 | 0.95 | 0.7 | 0.903 | 0.17 | 0.203 | 0.2 | 0.163 | 0.129 | 1.2 | 1.2 | 0.772 | 0.904 | 0.362 | 0.498 | 0.507 | 0.336 | 0.263 | 0.173
10 | LCLC-103H | 1.09 | 0.997 | 0.969 | 0.987 | 1.05 | 1.07 | 0.961 | 0.88 | 0.568 | 0.388 |  |  |  |  |  | 0.764 | 0.797 | 0.776 | 0.846 | 0.805
11 | LK-2 | 1.24 | 0.904 | 1.05 | 0.915 | 0.966 | 0.476 | 0.281 | 0.268 | 0.134 | 0.198 | 0.772 | 0.612 | 0.412 | 0.313 | 0.283 | 0.831 | 0.911 | 0.807 | 0.642 | 0.668
12 | NCI-H441 | 1.19 | 1.08 | 0.968 | 0.96 | 0.771 | 0.566 | 0.523 | 0.491 | 0.311 | 0.176 |  |  |  |  |  | 0.545 | 0.578 | 0.534 | 0.477 | 0.495
13 | NCI-H522 | 1.08 | 1.03 | 0.935 | 0.918 | 0.745 |  |  |  |  |  |  |  |  |  |  | 0.632 | 0.7 | 0.618 | 0.473 | 0.65
14 | NCI-H1563 | 1.07 | 1.03 | 1.09 | 0.966 | 1.06 | 0.961 | 0.794 | 0.779 | 0.761 | 0.601 | 0.868 | 0.708 | 0.758 | 0.656 | 0.506 |  |  |  |  | 
15 | NCI-H1623 | 0.948 | 1.03 | 0.879 | 0.89 | 0.965 |  |  |  |  |  |  |  |  |  |  |  |  |  |  | 
16 | NCI-H1648 | 1.14 | 0.764 | 0.84 | 0.94 | 0.814 |  |  |  |  |  |  |  |  |  |  | 0.983 |  | 0.841 | 0.762 | 0.509
17 | NCI-H1650 | 1.08 | 0.936 | 1.17 | 0.951 | 0.907 |  |  |  |  |  | 0.552 | 0.5 | 0.441 | 0.381 | 0.325 | 0.78 | 0.903 | 0.809 | 0.795 | 0.827
18 | NCI-H2170 | 1.03 | 0.954 | 0.986 | 1.01 | 0.881 |  |  |  |  |  | 0.264 | 0.236 | 0.271 | 0.259 | 0.216 | 0.663 | 0.554 | 0.631 | 0.581 | 0.601
19 | NCI-H2342 | 1.1 | 0.97 | 1.03 | 0.804 | 0.972 |  |  |  |  |  |  |  |  |  |  | 0.424 | 0.383 | 0.386 | 0.403 | 0.463
20 | SW 900 | 0.96 | 0.765 | 0.924 | 0.741 | 1.03 |  |  |  |  |  |  |  |  |  |  | 0.772 | 0.853 | 0.922 | 0.753 | 0.806
